Test results as given in patent publication US10265395B2, “Adjuvant compositions and related methods” (priority 2015, dated 2019).

Key:
BSA [1] = experiment: ELISA seroconversion to BSA in mice, BSA/adjuvant stability, time 0 and 6 months (Example 4); type: in vivo; conditions: for Normalized: Day 28/29, Table 18 (to BSA only GMT of the same storage temperature); for Geometric Means: Time point 6 Months
BSA [2] = experiment: ELISA seroconversion to BSA in CF-1 mice, BSA/adjuvant stability at 12 months (Example 8); type: in vivo; conditions: 12 Month; for Geometric Mean (ELISA to BSA): adjuvants at 4X, > 20 considered positive
[3] = 6 Month, Day 28/29, S = stored stability sample, F = fresh, storage in the label
[4] = Time 0, Day 32, mice SC 50 ug BSA/0.1 mL on days 0 and 14, value of 10 used for no seroconversion
[5] = Day 13, mice SC 50 ug BSA/0.1 mL
[6] = Day 28/29, mice SC 50 ug BSA/0.1 mL days 0 and 14

S-BSA/2-7° C.
Incidence (# Mice Seroconverted/# Mice Treated) (BSA [1]; 6 Month, Day 28/29): 8/10 | Normalized (BSA [1]; 6 Month): 1 | Geometric Mean (ELISA to BSA) (BSA [1]; [3]): 149 | Incidence (# Mice Seroconverted/# Mice Treated) (BSA [1]; Time 0, Day 32): 8/10 | Normalized (Geomean BSA/Adj06 ÷ Geomean BSA/PBS) (BSA [1]; Time 0, Day 32): 1 | Geometric Mean (ELISA to BSA) (BSA [1]; [4]): 290 | Incidence (BSA [2]; Day 13): 2/9 | Geometric Mean (ELISA to BSA) (BSA [2]; [5]): 15 | Incidence (BSA [2]; Day 28/29): 5/10 | Geometric Mean (ELISA to BSA) (BSA [2]; [6]): 86

F-BSA
Incidence (# Mice Seroconverted/# Mice Treated) (BSA [1]; 6 Month, Day 28/29): 6/10 | Geometric Mean (ELISA to BSA) (BSA [1]; [3]): 98 | Incidence (BSA [2]; Day 13): 5/9 | Geometric Mean (ELISA to BSA) (BSA [2]; [5]): 20 | Incidence (BSA [2]; Day 28/29): 7/10 | Geometric Mean (ELISA to BSA) (BSA [2]; [6]): 149

BSA/PBS
Incidence (# Mice Seroconverted/# Mice Treated) (BSA [1]; Time 0, Day 32): 8/10 | Geometric Mean (ELISA to BSA) (BSA [1]; [4]): 290 | Geometric Means (BSA [1]; Fresh): 98 | Geometric Means (BSA [1]; Stability Ambient - Storage (18-27° C.)): 243 | Geometric Means (BSA [1]; Stability Cold - Storage (2-7° C.)): 149

S-BSA/RT
Incidence (# Mice Seroconverted/# Mice Treated) (BSA [1]; 6 Month, Day 28/29): 8/10 | Normalized (BSA [1]; 6 Month): 1 | Geometric Mean (ELISA to BSA) (BSA [1]; [3]): 243 | Incidence (BSA [2]; Day 13): 5/10 | Geometric Mean (ELISA to BSA) (BSA [2]; [5]): 25 | Incidence (BSA [2]; Day 28/29): 7/10 | Geometric Mean (ELISA to BSA) (BSA [2]; [6]): 184
